Test results taken from PubChem BioAssay (NCI).
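Cultured in 96-well plates, cells were exposed to test compound for 48 hours across five concentrations. GI50 = concentration required for 50% inhibition of growth. TGI is the concentration that stops growth completely.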

Key:
Experiment in all cases: inhibition of tumour cell growth, NCI panel, 48 h
786-0 renal = tested on: 786-0 renal
A498 renal = tested on: A498 renal
A549 NSCLC = tested on: A549 NSCLC
ACHN renal = tested on: ACHN renal
BT-549 breast = tested on: BT-549 breast
CAKI-1 renal = tested on: CAKI-1 renal
CCRF-CEM leukemia = tested on: CCRF-CEM leukemia
COLO 205 colon = tested on: COLO 205 colon
DU-145 prostate = tested on: DU-145 prostate
HCC-2998 colon = tested on: HCC-2998 colon
HCT-116 colon = tested on: HCT-116 colon
HCT-15 colon = tested on: HCT-15 colon
HL-60(TB) leukemia = tested on: HL-60(TB) leukemia
HOP-62 NSCLC = tested on: HOP-62 NSCLC
HOP-92 NSCLC = tested on: HOP-92 NSCLC
HS 578T breast = tested on: HS 578T breast
HT29 colon = tested on: HT29 colon
IGROV1 ovarian = tested on: IGROV1 ovarian
K-562 leukemia = tested on: K-562 leukemia
KM12 colon = tested on: KM12 colon
LOX IMVI melanoma = tested on: LOX IMVI melanoma
M14 melanoma = tested on: M14 melanoma
MALME-3M melanoma = tested on: MALME-3M melanoma
MCF7 breast = tested on: MCF7 breast
MDA-MB-231 breast = tested on: MDA-MB-231 breast
MDA-MB-435 = tested on: MDA-MB-435
MOLT-4 leukemia = tested on: MOLT-4 leukemia
NCI-H226 lung = tested on: NCI-H226 lung
NCI-H23 lung = tested on: NCI-H23 lung
NCI-H460 lung = tested on: NCI-H460 lung
NCI-H522 lung = tested on: NCI-H522 lung
NCI/ADR-RES ovarian = tested on: NCI/ADR-RES ovarian
OVCAR-3 ovarian = tested on: OVCAR-3 ovarian
OVCAR-5 ovarian = tested on: OVCAR-5 ovarian
OVCAR-8 ovarian = tested on: OVCAR-8 ovarian
PC-3 prostate = tested on: PC-3 prostate
RXF 393 renal = tested on: RXF 393 renal
SF-268 CNS = tested on: SF-268 CNS
SF-295 CNS = tested on: SF-295 CNS
SF-539 CNS = tested on: SF-539 CNS
SK-MEL-2 melanoma = tested on: SK-MEL-2 melanoma
SK-MEL-28 melanoma = tested on: SK-MEL-28 melanoma
SK-MEL-5 melanoma = tested on: SK-MEL-5 melanoma
SK-OV-3 ovarian = tested on: SK-OV-3 ovarian
SN12C renal = tested on: SN12C renal
SNB-19 CNS = tested on: SNB-19 CNS
SNB-75 CNS = tested on: SNB-75 CNS
SR leukemia = tested on: SR leukemia
SW-620 colon = tested on: SW-620 colon
T-47D breast = tested on: T-47D breast
TK-10 renal = tested on: TK-10 renal
U251 CNS = tested on: U251 CNS
UACC-257 melanoma = tested on: UACC-257 melanoma
UACC-62 melanoma = tested on: UACC-62 melanoma
UO-31 renal = tested on: UO-31 renal

In the case of `COc1ccc(/C=C2\CCCC3=C2N=C2SC=NN2C3c2ccc(OC)c(OC)c2)cc1OC` (stereo not given), the GI50 (786-0 renal) is reported as 25.3 µM, the TGI (786-0 renal) is reported as greater than 100 µM and the GI50 (A498 renal) is reported as 2.76 µM. The TGI (A498 renal) was 40.8 µM, the GI50 (A549 NSCLC) was 30.5 µM and the TGI (A549 NSCLC) was greater than 100 µM. The GI50 (ACHN renal) was 7.71 µM, the TGI (ACHN renal) was greater than 100 µM and the GI50 (BT-549 breast) was 21.9 µM. For the same molecule, the TGI (BT-549 breast) was greater than 100 µM, the GI50 (CAKI-1 renal) was 7.43 µM and the TGI (CAKI-1 renal) was greater than 100 µM. For the same molecule, the GI50 (CCRF-CEM leukemia) was 6.16 µM, the TGI (CCRF-CEM leukemia) was greater than 100 µM and the GI50 (COLO 205 colon) was 7.58 µM. For the same molecule, the TGI (COLO 205 colon) was greater than 100 µM, the GI50 (DU-145 prostate) was 23 µM and the TGI (DU-145 prostate) was greater than 100 µM. For the same molecule, the GI50 (HCC-2998 colon) was greater than 100 µM, the TGI (HCC-2998 colon) was greater than 100 µM and the GI50 (HCT-116 colon) was 4.79 µM. It also gave a TGI (HCT-116 colon) of 32.5 µM, a GI50 (HCT-15 colon) of 5.58 µM and a TGI (HCT-15 colon) of 60.5 µM. For the same molecule, the GI50 (HL-60(TB) leukemia) was 22.2 µM, the TGI (HL-60(TB) leukemia) was 78 µM and the GI50 (HOP-62 NSCLC) was 24.3 µM. The TGI (HOP-62 NSCLC) was greater than 100 µM, the GI50 (HOP-92 NSCLC) was 11.6 µM and the TGI (HOP-92 NSCLC) was 58.9 µM. The GI50 (HS 578T breast) was 28.2 µM, the TGI (HS 578T breast) was greater than 100 µM and the GI50 (HT29 colon) was 19.9 µM. It also gave a TGI (HT29 colon) greater than 100 µM, a GI50 (IGROV1 ovarian) of 28.9 µM and a TGI (IGROV1 ovarian) greater than 100 µM. The GI50 (K-562 leukemia) was 6.09 µM, the TGI (K-562 leukemia) was greater than 100 µM and the GI50 (KM12 colon) was 11.8 µM. For the same molecule, the TGI (KM12 colon) was greater than 100 µM, the GI50 (LOX IMVI melanoma) was 16.6 µM and the TGI (LOX IMVI melanoma) was 75.1 µM. For the same molecule, the GI50 (M14 melanoma) was 11.9 µM, the TGI (M14 melanoma) was greater than 100 µM and the GI50 (MALME-3M melanoma) was 22.6 µM. The TGI (MALME-3M melanoma) was 78.7 µM, the GI50 (MCF7 breast) was 2.42 µM and the TGI (MCF7 breast) was greater than 100 µM. The GI50 (MDA-MB-231 breast) was 26 µM, the TGI (MDA-MB-231 breast) was greater than 100 µM and the GI50 (MDA-MB-435) was 3.51 µM. For the same molecule, the TGI (MDA-MB-435) was 42.8 µM, the GI50 (MOLT-4 leukemia) was 21.4 µM and the TGI (MOLT-4 leukemia) was greater than 100 µM. It also gave a GI50 (NCI-H226 lung) of 18.5 µM, a TGI (NCI-H226 lung) of 89.2 µM and a GI50 (NCI-H23 lung) of 22.4 µM. For the same molecule, the TGI (NCI-H23 lung) was greater than 100 µM, the GI50 (NCI-H460 lung) was 22.4 µM and the TGI (NCI-H460 lung) was greater than 100 µM. The GI50 (NCI-H522 lung) was 17.9 µM, the TGI (NCI-H522 lung) was greater than 100 µM and the GI50 (NCI/ADR-RES ovarian) was 18.2 µM. The TGI (NCI/ADR-RES ovarian) was greater than 100 µM, the GI50 (OVCAR-3 ovarian) was 4.62 µM and the TGI (OVCAR-3 ovarian) was 75.4 µM. The GI50 (OVCAR-5 ovarian) was 47.7 µM, the TGI (OVCAR-5 ovarian) was greater than 100 µM and the GI50 (OVCAR-8 ovarian) was 5.51 µM. For the same molecule, the TGI (OVCAR-8 ovarian) was greater than 100 µM, the GI50 (PC-3 prostate) was 37.8 µM and the TGI (PC-3 prostate) was greater than 100 µM. For the same molecule, the GI50 (RXF 393 renal) was 4.91 µM, the TGI (RXF 393 renal) was 24.3 µM and the GI50 (SF-268 CNS) was 19.9 µM. For the same molecule, the TGI (SF-268 CNS) was greater than 100 µM, the GI50 (SF-295 CNS) was 32.7 µM and the TGI (SF-295 CNS) was greater than 100 µM. It also gave a GI50 (SF-539 CNS) of 14.6 µM, a TGI (SF-539 CNS) of 68.5 µM and a GI50 (SK-MEL-2 melanoma) of 25.8 µM. It also gave a TGI (SK-MEL-2 melanoma) greater than 100 µM, a GI50 (SK-MEL-28 melanoma) of 19.3 µM and a TGI (SK-MEL-28 melanoma) greater than 100 µM. It also gave a GI50 (SK-MEL-5 melanoma) of 16.4 µM, a TGI (SK-MEL-5 melanoma) greater than 100 µM and a GI50 (SK-OV-3 ovarian) of 56.4 µM. For the same molecule, the TGI (SK-OV-3 ovarian) was greater than 100 µM, the GI50 (SN12C renal) was 18.2 µM and the TGI (SN12C renal) was greater than 100 µM. For the same molecule, the GI50 (SNB-19 CNS) was 32.9 µM, the TGI (SNB-19 CNS) was greater than 100 µM and the GI50 (SNB-75 CNS) was 9.38 µM. The TGI (SNB-75 CNS) was 44.1 µM, the GI50 (SR leukemia) was 5.65 µM and the TGI (SR leukemia) was 66.1 µM. For the same molecule, the GI50 (SW-620 colon) was 10.1 µM, the TGI (SW-620 colon) was 39.3 µM and the GI50 (T-47D breast) was 5.21 µM. It also gave a TGI (T-47D breast) greater than 100 µM, a GI50 (TK-10 renal) of 21 µM and a TGI (TK-10 renal) of 76.2 µM. The GI50 (U251 CNS) was 22.7 µM, the TGI (U251 CNS) was greater than 100 µM and the GI50 (UACC-257 melanoma) was 10.5 µM. It also gave a TGI (UACC-257 melanoma) greater than 100 µM, a GI50 (UACC-62 melanoma) of 4.21 µM and a TGI (UACC-62 melanoma) of 80 µM. For the same molecule, the GI50 (UO-31 renal) was 15.3 µM and the TGI (UO-31 renal) was greater than 100 µM.
